Assay results: patent publication EP0958835A1, “PREVENTIVE/REMEDY FOR FREQUENT URINATION AND URINARY INCONTINENCE” (Kissei Pharmaceutical Co., Ltd., priority 1996, dated 1998)

Test system: human bladder smooth muscle
Experiment: Relaxing effect on resting tension of isolated human bladder smooth muscle strips
Type: cell-based
Conditions: drug added cumulatively about every 5 minutes, 0 % = 10^-5 M forskolin, Figure 1
Description: Measurement of the contractile force of human bladder smooth muscle strips (1) Smooth muscle preparations Human bladders were obtained from patients undergoing cystectomy and were carefully dissected free from the surrounding fat and mucosa. Preparations were prepared by cutting the bladder smooth muscle longitudinally into about 1.5 cm in length and about 3 mm in width and used. […] Conditions for measurement; The bathing solution was maintained at 37 °C and gassed with a mixture of 95 % O2 and 5 % CO2. Drug Treatment; The drug was cumulatively added about every 5 minutes. Evaluation of the drug effects; The drug-induced relaxation was evaluated. The tension before the drug treatment is indicated as 100 %, and the tension after treatment with 10^-5 M forskolin which produces maximal bladder relaxation is indicated as 0 %. According to the method described above, the bladder relaxing effects of the following drugs were measured using human bladder smooth muscle.

Compound | relaxing effects on bladder smooth muscle
CC(C)(C)NCC(O)COc1cccc2[nH]c(=O)[nH]c12.Cl (racemic) [CGP-12,177A hydrochloride, (±)-4-[3-[(1,1-dimethylethyl)-amino]-2-hydroxypropoxy]-1,3-dihydro-2H-benzimidazol-2-on hydrochloride] | apparent relaxing effects
CC(C)NCC(O)c1ccc(O)c(O)c1 (centres unmarked) [isoproterenol] | apparent relaxing effects
